One test addresses T1, D1 receptor (Homo sapiens, UniProt P21728).
T1 construct: expressed in transfected cells; host or cells: D1 transfected CHO cell line
Nature of the test: D1 Activation Adenylyl Cyclase Assay (cAMP FlashPlate, D1 transfected CHO cell line). Format: cell-based. The note with it: agonist activity at the D1 receptor, adenylate cyclase assay, D1 transfected CHO cell line; read-out: D1 EC50. The procedure: D1 Activation Adenylyl Cyclase Assay
Purpose: To measure D1-agonist activity compounds using an Adenylyl Cyclase Activation Flash Plate Assay from NEN.
Buffers: Activation and Detection buffers are provided from NEN: Catalog # SMP004A.
Maintenance of D1 transfected CHO cell line: • 1. Cells are grown in a 150 cc flask in an incubator at 37° C. with 5% CO2 for 2-3 days (4 maximum) until confluent. • 2. Aspirate off old media (Cells adhere to the plastic flask), wash 2× with sterile PBS. • 3. Add ˜5 mL of Trypsin EDTA (enough to cover bottom of the flask) for 5 min. at RT. • 4. Stop digestion with 15 mL of Media (Ham's F12 plus 10% FBS, 1% P/S, 400 μg/mL G418). • Bang flask on counter to release them from the flask. • 5. Add 2 mL of this to 30 mL of Media in a fresh flask. Return to incubator. Preparation of Cells for Assay: • 1. Loosen the cells with 5 mL Vercine (EDTA)/flask for 10 minutes in incubator. • 2. Add 20 mL of Serum-free media/flask. Transfer to 50-mL Falcon tube. • 3. Spin down cells at 1000 RPM for 5 minutes at 4° C. • 4. Aspirate off old media and resuspend in 5 mL of Serum-free media/plate to be done. • 5. Dilute 10 μL 1/10 in 90 μL Trypan Blue solution and count with a hemocytometer. • Count (live cells only) all four areas and average them. • Count X 10^5 equals cells/mL (including accounting for dilution in Trypan). • 6. Dilute to 50,000 cells/50 μL (1,000,000 cells/mL) in Serum-free media. • 7. Put 50 μL/well in Rows 3-12 of a cAMP FlashPlate. • 8. Put in incubator at 37° C. for 2-4 hours, to allow cells to recover and attach. Adenylyl Cyclase Activation Assay: • 1. Prepare the cAMP standards: • Add 130 μL/well of stimulation buffer to each row of a separate 96-well “standard” plate, 2 columns/plate. • Dilute stock cAMP standard 1/5 with stimulation buffer (final concentration is 1000 pmol/mL). Add 130 μL of this to row A. • Make 1/2 serial dilutions by adding 130 μL from each well to the next (A-G), mixing between each. • Final concentrations are: • A: 500, B: 250, C: 125, D: 62.5, E: 31.25, F: 15.6, G: 7.8, H: 0 pmol/mL. • Place 100 μL from each row from 2 columns of the standard plate into columns 1 and 2 of each “reaction” plate. • 2. Prepare the negative and positive control in the “reaction” plate: • Column 3, rows A-D, add 100 μL stimulation buffer (negative control). • Column 3, rows E-H, add 90 μL of stimulation buffer plus 10 μL of 200 μM APO (positive control, […]). (10 μL 10 mM APO, plus 490 μL stim. buffer=1/50 dilution.) • 3. Prepare the agonist compound dilutions in the “compound” plate: • Add 80 μL of stimulation buffer to row A (One column for each compound), and 90 μL of stimulation buffer to rows B—H. • Add 20 μL of 10 mM of each compound to appropriate row A. • Make 1/10 serial dilutions by adding 10 μL from each well to the next (A-H), mixing between each. • 4. […]. Prepare Detection/Stop buffer by adding 90 μL/plate of cAMP-^125I to 10 mL/plate plus 6 mL (for dead volume) of detection buffer. Steps 6-8 performed with the Multi-Mek. • 6. Add 50 μL to each well of the FlashPlate with CHO cells set up earlier. • 7. Incubate at RT for 8 minutes. • 8. Stop reaction by adding 100 μL of detection/stop buffer to each well. • 9. Cover with plastic film and incubate at RT for 16-24 hours (don't wait more than 24 hours). • 10. Count in a Packard Top-Count. Calculations: • 1. Raw signals generated by cAMP standard wells, without cells, are averaged at each cAMP concentration and converted to % B/Bo by dividing the raw signal at each cAMP concentration by the raw signal with no cAMP added. • 2. These values are used to generate a standard curve by plotting cAMP concentration versus % B/Bo. • 3. Raw data for each compound at each concentration is also converted to % B/B. by the same method. • 4. These values are then converted to pmol cAMP/mL using the standard curve. • 5. These cAMP values are then averaged across the three replicates for each compound concentration. • 6. […]

In test [1] the target is T2, human dopamine D1 receptor (Homo sapiens, UniProt P21728).
T2 construct: A 1.4 Kb Hind III to Xho I fragment was subcloned into the vector pMMLV; expressed in transfected cells; host or cells: CHO cells, clone CHO-D1M#9 (plasmid pHD1MMLV), membranes
T2 sequence (P21728 whole entry, the tested form may be a part): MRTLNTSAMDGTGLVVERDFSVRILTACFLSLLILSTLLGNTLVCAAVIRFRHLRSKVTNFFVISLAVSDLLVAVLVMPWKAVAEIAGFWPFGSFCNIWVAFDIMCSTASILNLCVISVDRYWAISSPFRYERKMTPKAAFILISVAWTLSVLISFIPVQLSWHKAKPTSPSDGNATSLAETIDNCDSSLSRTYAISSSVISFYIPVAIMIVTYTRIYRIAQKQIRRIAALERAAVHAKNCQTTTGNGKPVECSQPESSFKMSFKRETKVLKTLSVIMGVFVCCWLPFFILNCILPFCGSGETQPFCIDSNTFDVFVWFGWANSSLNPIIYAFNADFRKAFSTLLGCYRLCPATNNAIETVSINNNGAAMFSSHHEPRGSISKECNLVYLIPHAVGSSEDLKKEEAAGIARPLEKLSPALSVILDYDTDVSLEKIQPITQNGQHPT
Nature of the test: [3H]-SCH-23390 binding to cloned human dopamine D1 receptors (CHO cell membranes). As to conditions: competitive binding, [3H]-SCH-23390, cloned human D1 in CHO membranes; read-out: D1 affinity Ki.

The EC50 is the concentration at which the effect is half-maximal. Usually Ki stands for the equilibrium dissociation constant of an inhibitor or competing ligand from its target.

Structures are written as SMILES. Structures can show the parent of a compound that is named as a salt.

T1 sequence (P21728 whole entry): as the sequence (P21728 whole entry, the tested form may be a part) above

On to `Cc1ccc(C(=O)NC(C)CCN2CCC([C@@H]3Cc4c(ccc(C)c4O)[C@H](CN)O3)CC2)cc1` (stereo partly drawn) [Example 15, N-{3-[4-((1R,3S)-1-Aminomethyl-5-hydroxy-6-methyl-isochroman-3-yl)-piperidin-1-yl]-1-methyl-propyl}-4-methyl-benzamide dihydrochloride], for which the EC50 at D1 receptor was 11 nM. Further, the Ki in test [1] was 126 nM.
As to `Cc1ccc2c(c1O)C[C@@H](C1CCN(CCC(C)NC(=O)c3ccc(Br)cc3)CC1)O[C@H]2CN` (stereo partly drawn) [Example 23, N-{3-[4-((1R,3S)-1-Aminomethyl-5-hydroxy-6-methyl-isochroman-3-yl)-piperidin-1-yl]-1-methyl-propyl}-4-bromo-benzamide dihydrochloride], the EC50 on D1 receptor was 59 nM. Moreover, the Ki in test [1] amounted to 91.8 nM.
Consider `Cc1ccc2c(c1O)C[C@@H](C1CCN(CCC(C)c3ccccc3)CC1)O[C@H]2CN` (stereo partly drawn) [Example 27, (1R,3S)-1-Aminomethyl-6-methyl-3-[1-(3-phenyl-butyl)-piperidin-4-yl]-isochroman-5-ol dihydrobromide], for which the EC50 at D1 receptor stood at 280 nM.
Take `Cc1ccc2c(c1O)C[C@@H](C1CCN(Cc3ccncc3)CC1)O[C@H]2CN` [Example 54, (1R,3S)-1-Aminomethyl-6-methyl-3-(1-pyridin-4-ylmethyl-piperidin-4-yl)-isochroman-5-ol dihydrochloride]: the EC50 on D1 receptor was 45 nM. The Ki in test [1] is 153 nM.
Regarding `Cc1ccc2c(c1O)C[C@@H](C1CCN(Cc3ccc(Cl)cc3)CC1)O[C@H]2CN` [Example 58, (1R,3S)-1-Aminomethyl-3-[1-(4-chloro-benzyl)-piperidin-4-yl]-6-methyl-isochroman-5-ol dihydrochloride], the concentration for a half-maximal effect (EC50) on D1 receptor was found to be 10 nM. Further, in test [1], the inhibitory constant (Ki) stood at 52 nM.
On the same counts, the results for `COc1ccc(CN2CCC([C@@H]3Cc4c(ccc(C)c4O)[C@H](CN)O3)CC2)cc1` [Example 61, (1R,3S)-1-Aminomethyl-3-[1-(4-methoxy-benzyl)-piperidin-4-yl]-6-methyl-isochroman-5-ol dihydrochloride] are 47 nM and 19.8 nM.
As to `Cc1ccc2c(c1O)C[C@@H](C1CCN(Cc3ccc(O)cc3)CC1)O[C@H]2CN` [Example 62, (1R,3S)-1-Aminomethyl-3-[1-(4-hydroxy-benzyl)-piperidin-4-yl]-6-methyl-isochroman-5-ol dihydrochloride], the 50% effective concentration (EC50) at D1 receptor was determined as 14 nM. Besides, the Ki in test [1] is 46.1 nM.
The matching figures for `Cc1ccc2c(c1O)C[C@@H](C1CCN(Cc3ccc(F)c(F)c3)CC1)O[C@H]2CN` [Example 63, (1R,3S)-1-Aminomethyl-3-[1-(3,4-difluoro-benzyl)-piperidin-4-yl]-6-methyl-isochroman-5-ol dihydrochloride]: 9 nM and 6.8 nM.
On the same counts, the results for `Cc1ccc(CN2CCC([C@@H]3Cc4c(ccc(C)c4O)[C@H](CN)O3)CC2)cc1` [Example 66, (1R,3S)-1-Aminomethyl-6-methyl-3-[1-(4-methyl-benzyl)-piperidin-4-yl]-isochroman-5-ol dihydrochloride] are 6 nM and 75.7 nM.
With `Cc1ccc2c(c1O)C[C@@H](C1CCN(Cc3ccsc3)CC1)O[C@H]2CN` [Example 67, (1R,3S)-1-Aminomethyl-6-methyl-3-(1-thiophen-3-ylmethyl-piperidin-4-yl)-isochroman-5-ol dihydrochloride], the EC50 at D1 receptor is 9 nM. Besides, the Ki in test [1] came to 62.6 nM.
On the same counts, the results for `Cc1ccc2c(c1O)C[C@@H](C1CCN(Cc3cccc(F)c3)CC1)O[C@H]2CN` [Example 69, (1R,3S)-1-Aminomethyl-3-[1-(3-fluoro-benzyl)-piperidin-4-yl]-6-methyl-isochroman-5-ol dihydrochloride] are 10 nM and 32.5 nM.
The matching figures for `Cc1ccc2c(c1O)C[C@@H](C1CCN(Cc3ccc(C(F)(F)F)cc3F)CC1)O[C@H]2CN` [Example 70, (1R,3S)-1-Aminomethyl-3-[1-(2-fluoro-4-trifluoromethyl-benzyl)-piperidin-4-yl]-6-methyl-isochroman-5-ol dihydrochloride]: 77 nM and 19.4 nM.
The matching figures for `Cc1ccc2c(c1O)C[C@@H](C1CCN(Cc3ccoc3)CC1)O[C@H]2CN` [Example 71, (1R,3S)-1-Aminomethyl-3-(1-furan-3-ylmethyl-piperidin-4-yl)-6-methyl-isochroman-5-ol hydrochloride]: 420 nM and 94.2 nM.
Turning to `Cc1ccc2c(c1O)C[C@@H](C1CCN(Cc3ccccc3)CC1)O[C@H]2CN` [Example 93, (1R,3S)-1-Aminomethyl-3-[1-(benzyl)-piperidin-4-yl]-6-methyl-isochroman-5-ol dihydrobromide], the 50% effective concentration (EC50) on D1 receptor stood at 45 nM.
As for `CNC[C@@H]1O[C@H](C2CCN(C)CC2)Cc2c1ccc(C)c2O` [Example 102, (1R,3S)-6-Methyl-1-methylaminomethyl-3-(1-methyl-piperidin-4-yl)-isochroman-5-ol dihydrobromide], at D1 receptor, the EC50 was 1500 nM. Moreover, the Ki in test [1] was found to be 147 nM.
On the same counts, the results for `Cc1ccc2c(c1O)C[C@@H](C1CCN(CCCC(c3ccc(F)cc3)c3ccc(F)cc3)CC1)O[C@H]2CN` [Example 108, (1R,3S)-1-Aminomethyl-3-{1-[4,4-bis-(4-fluoro-phenyl)-butyl]-piperidin-4-yl}-6-methyl-isochroman-5-ol dihydrobromide] are 36 nM and 110 nM.
Consider `Cc1ccc2c(c1O)C[C@@H](C1CCN(CCCc3ccccc3)CC1)O[C@H]2CN` [Example 110, (1R,3S)-1-Aminomethyl-6-methyl-3-[1-(3-phenyl-propyl)-piperidin-4-yl]-isochroman-5-ol dihydrochloride], for which, on D1 receptor, the EC50 is 6 nM.
Regarding `Cc1ccc2c(c1O)C[C@@H](C1CCN(Cc3ccc(C(F)(F)F)cc3)CC1)O[C@H]2CN(C)C` [Example 168, (1R,3S)-1-Dimethylaminomethyl-6-methyl-i-3-[1-(4-trifluoromethylbenzyl)piperidin-4-yl]-isochroman-5-ol], on D1 receptor, the concentration giving a half-maximal response (EC50) is 31000 nM. In addition, the inhibitory constant (Ki) in test [1] was found to be 45 nM.
For the compound `CNC[C@@H]1O[C@H](C2CCN(Cc3ccc(C(F)(F)F)cc3)CC2)Cc2c1ccc(C)c2O` [Example 181, (1R,3S)-6-Methyl-1-methylaminomethyl-3-[1-(4-trifluoromethyl-benzyl)-piperidin-4-yl]-isochroman-5-ol hydrochloride], the EC50 at D1 receptor worked out at 220 nM. In addition, the inhibitory constant (Ki) in test [1] amounted to 21 nM.
The matching figures for `CCNC[C@@H]1O[C@H](C2CCN(Cc3ccc(C(F)(F)F)cc3)CC2)Cc2c1ccc(C)c2O` [Example 182, (1R,3S)-1-Ethylaminomethyl-6-methyl-3-[1-(4-trifluoromethyl-benzyl)-piperidin-4-yl]-isochroman-5-ol]: 1300 nM and 255 nM.

Values taken from patent US7919508B2, “3-piperidinylisochroman-5-ols as dopamine agonists” (Aventis Pharmaceuticals Inc., priority 2004, dated 2011).
